The values that follow come from publication PMC6013488, “A widely-applicable high-throughput cellular thermal shift assay (CETSA) using split Nano Luciferase” (Scientific Reports, 2018).

Like-named read-outs stand apart in the source and are kept apart here.

The target in the test is T1, CDK9/cyclin K (Homo sapiens, UniProt P50750).
T1 construct: purchased Invitrogen (ThermoFisher) PV4335
In words: TR-FRET Lanthascreen Eu Kinase Binding assay. The settings on record: for Curve Class: classifies curves by quality of fit, efficacy and number of asymptotes; for Efficacy: difference between highest and lowest activity across concentration range; for Efficacy / Max Resp: in %. An excerpt: The TR-FRET Lanthascreen Eu Kinase Binding assay for CDK9/cyclin K was purchased from ThermoFisher and performed as per manufacturer instructions.
Background: TR-FRET usually uses a lanthanide donor and a delayed reading to cut background.

The mark [1] stands for this setting: concentration at which half maximal activity is observed, 7-point qHTS, read-out: AC50.
Where [2] appears, read: logarithm of AC50, read-out: Log AC50 (converted).

T1 sequence (P50750 whole entry): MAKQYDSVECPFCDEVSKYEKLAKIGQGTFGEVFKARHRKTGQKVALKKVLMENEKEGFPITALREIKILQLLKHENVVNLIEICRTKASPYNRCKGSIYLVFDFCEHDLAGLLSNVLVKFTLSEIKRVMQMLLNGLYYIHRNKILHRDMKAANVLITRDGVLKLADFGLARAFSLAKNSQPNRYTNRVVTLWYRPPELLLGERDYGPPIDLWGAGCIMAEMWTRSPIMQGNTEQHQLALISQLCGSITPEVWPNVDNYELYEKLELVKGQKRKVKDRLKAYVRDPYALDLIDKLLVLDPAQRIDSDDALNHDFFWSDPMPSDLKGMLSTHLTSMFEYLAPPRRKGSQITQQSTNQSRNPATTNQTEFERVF
T1 sequence (O75909 whole entry partner): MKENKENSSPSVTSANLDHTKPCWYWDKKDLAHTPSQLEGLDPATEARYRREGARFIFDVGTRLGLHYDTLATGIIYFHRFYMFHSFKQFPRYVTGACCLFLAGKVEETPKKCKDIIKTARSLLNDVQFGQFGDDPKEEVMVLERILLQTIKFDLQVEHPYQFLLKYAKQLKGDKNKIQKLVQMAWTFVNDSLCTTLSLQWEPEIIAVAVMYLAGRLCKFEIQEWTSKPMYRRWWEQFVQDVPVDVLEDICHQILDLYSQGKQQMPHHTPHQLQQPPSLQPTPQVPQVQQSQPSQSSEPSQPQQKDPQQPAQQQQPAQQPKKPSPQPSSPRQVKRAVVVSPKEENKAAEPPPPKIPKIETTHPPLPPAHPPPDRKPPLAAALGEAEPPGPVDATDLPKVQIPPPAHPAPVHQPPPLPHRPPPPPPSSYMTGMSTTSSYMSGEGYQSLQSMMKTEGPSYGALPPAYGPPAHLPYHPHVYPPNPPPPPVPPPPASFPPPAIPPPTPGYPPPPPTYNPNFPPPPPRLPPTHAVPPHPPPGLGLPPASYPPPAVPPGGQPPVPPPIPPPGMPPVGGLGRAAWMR

On to `O=C(Nc1nc2ccccc2n1CCN1CCOCC1)c1cccc([N+](=O)[O-])c1` [IRAK-1-4 Inhibitor I], for which the “Curve Class” value is listed as -1.2 and the Efficacy is reported as -75.6.
Take `CC(C)Oc1cc(Nc2nc(N[C@@H](C)c3ccc(F)cn3)ncc2Cl)n[nH]1` [AZ 23]: the “Curve Class” value is reported as -1.2, the Efficacy is -76.1 and the “Max Resp” value is -97.4.
The corresponding values for `CC(C)c1c2cc(-c3ccnc(N[C@H]4CC[C@H](NC5CCOCC5)CC4)n3)ccc2nn1C` [LY2857785] are 5, -28.1 and -89.7.
With `O=C1NC(=O)/C(=C/c2ccc3nccc(-c4ccncc4)c3c2)S1` [GSK-1059615], the “Curve Class” value is -1.2, the Efficacy is reported as -79.9 and the “Max Resp” value is recorded as -87.0.
On to `CC(=O)N1CCN(C(=O)Cc2ccc(Nc3ncc(F)c(Nc4ccc(C(=O)Nc5ccccc5Cl)cc4)n3)cc2)CC1` [Aurora A inhibitor II], for which the “Curve Class” value is -1.1, the Efficacy is recorded as -82.6 and the “Max Resp” value is -83.7. Further, the half-maximal activity concentration (AC50) (as a rule, the concentration at which the activity in the assay is half-maximal) under setting [1] came to 947 nM. Further, the “Log AC50 (M)” value (logarithm of AC50) is -6.0 M.
On to `O=C1NCCSc2c1sc1ccc(O)cc21` [kb-NB142-70], for which the “Curve Class” value was -1.1, the Efficacy is reported as -82.7 and the “Max Resp” value is -91.1.
Regarding `N#C/C(=C\c1ccc(O)c(O)c1)C(=O)NCCCNC(=O)/C(C#N)=C/c1ccc(O)c(O)c1` [Tyrphostin AG 537], the “Curve Class” value is on record as -1.1, the Efficacy is -98.0 and the “Max Resp” value is on record as -83.8.
The corresponding values for `O=C1Nc2ccc(F)cc2/C1=C1\Nc2ccccc2\C1=N\O` [5 -Fluoroindirubinoxime] are -1.1, -80.2 and -86.1.
The corresponding values for `COc1ccc(F)c(F)c1C(=O)c1cnc(NC2CCN([S+](C)(=O)[O-])CC2)nc1N` [Compound R547, R547] are 5, -13.4 and -94.3.
On to `O=C1NC(=O)/C(=C/c2ccc3nccc(-c4ccncc4)c3c2)S1` [GSK1059615], for which the “Curve Class” value is -1.1, the Efficacy is -89.8 and the “Max Resp” value is reported as -91.2.
As for `CN1CC[C@@H](c2c(O)cc(O)c3c(=O)cc(-c4ccc(C(F)(F)F)cc4Cl)oc23)[C@@H]1CO` [Voruciclib], the “Curve Class” value was -1.1, the Efficacy is reported as -95.6 and the “Max Resp” value is -95.8.
The corresponding values for `Cc1ncc(-c2ccnc(Nc3ccc(S(C)(=O)=O)cc3)n2)n1C(C)C` [AZD5438] are -1.2, -75.7 and -98.3.
In the same order, the values of `COc1ccc2c(c1)/C(=C/c1cnc[nH]1)C(=O)N2` [SU9516] are -1.1, -93.0 and -90.2.
With `CN1CCN(Cc2ccc(Nc3ncc(Cl)c(Nc4ccccc4S(=O)(=O)N(C)C)n3)cc2)CC1` [TP-0903], the “Curve Class” value was -1.2, the Efficacy is on record as -74.0 and the “Max Resp” value is -96.9. Also, the AC50 under setting [1] stood at 68.7 nM.
As to `O=C1OC(/C=C/c2ccccc2)=NC/1=C\c1cccnc1` [TC-DAPK 6], the “Curve Class” value was -1.2, the Efficacy is given as -71.2 and the “Max Resp” value is reported as -68.2.
In the same order, the values of `Oc1cc(CNC(=S)/C=C/c2cc(O)c(O)c(Br)c2)cc(O)c1O` [NT 157] are -1.4, -60.3 and -8.3.
In the case of `C[C@@H](Oc1ccc2[nH]nc(/C=C/c3cnn(CCO)c3)c2c1)c1c(Cl)cncc1Cl` [LY2874455], the “Curve Class” value is reported as -1.1, the Efficacy is -87.6 and the “Max Resp” value was -91.8. The AC50 under setting [1] is 299 nM.
With `Cc1n[nH]c2ccc(-c3cncc(OC[C@@H](N)Cc4c[nH]c5ccccc45)c3)cc12` [Compound A-443654, A-443654], the “Curve Class” value is given as -1.1, the Efficacy is -88.0 and the “Max Resp” value is -96.6.
In the same order, the values of `O=C1Nc2ccccc2/C1=C1/Nc2ccccc2/C1=N\OCCC(O)CO` (stereo not shown) [Indirubin_E8] are -1.1, -83.1 and -81.2.
In the same order, the values of `NS(=O)(=O)c1ccc(NN=C2C(=O)Nc3ccc(Br)cc32)cc1` [Cdk2 Inhibitor II] are -1.2, -67.2 and -64.7.
For `Cc1ccc([N+](=O)[O-])cc1[S+](=O)([O-])N(C)/N=C\c1cnc2ccc(Br)cn12` [NCGC00387028-01, PIK-75], the “Curve Class” value was found to be 5, the Efficacy was found to be 0.0 and the “Max Resp” value is -93.4.
For `N[C@H]1CC[C@H](Nc2nc(Nc3ccc(C(=O)N4CCCCC4)cc3)c3ncn(-c4cccc(F)c4)c3n2)CC1` [Purfalcamine], the “Curve Class” value is -1.2, the Efficacy was -78.7 and the “Max Resp” value was -96.3. Under setting [2], the AC50 is 631 nM.
Regarding `Oc1ccc(-c2ccc(-c3cc(Nc4cccc(CNC5CC5)c4)[nH]n3)cc2)c(O)c1` [TCS-2312], the “Curve Class” value is given as -1.1, the Efficacy was -85.0 and the “Max Resp” value was -94.1.
The corresponding values for `CC(C)c1cc(CNc2nc(Nc3cc(C4CC4)[nH]n3)cc(N3CCN(C)CC3)n2)on1` [XL-228] are -1.1, -97.1 and -96.7.
The corresponding values for `C[S+](=O)([O-])N1CCC(NC(=O)c2[nH]ncc2NC(=O)c2c(Cl)cccc2Cl)CC1` [NVP-LCQ195] are -1.2, -72.2 and -98.8.
The corresponding values for `CN[C@@H]1C[C@H]2O[C@@](C)([C@@H]1OC)n1c3ccccc3c3c4c(c5c6ccccc6n2c5c31)C(=O)N[C@H]4O` [UCN-01] are -1.1, -83.5 and -93.0.
With `N#C/C(=C1\Nc2ccccc2S1)c1ccnc(NCCc2cccnc2)n1` [AS601245], the “Curve Class” value is recorded as -1.2, the Efficacy is reported as -79.8 and the “Max Resp” value is on record as -85.8.
For the compound `CCOC(=O)c1c(/C(C#N)=C\N)c2ccc(Cl)c(Cl)c2n1C` [KH-CB19], the “Curve Class” value was -1.1, the Efficacy was -88.2 and the “Max Resp” value is on record as -90.2. Moreover, under “AC50, concentration at which half maximal activity is observed, 7-point qHTS”, the activity was half-maximal at 336 nM (AC50).
Turning to `CC(C)CC(=O)Nc1[nH]nc2c1CN(C(=O)C1CCN(C)CC1)C2(C)C` [PHA-793887], the “Curve Class” value was -1.1, the Efficacy is on record as -87.0 and the “Max Resp” value is -99.5.
In the same order, the values of `CNC(=O)c1ccc(Nc2ncc(C(F)(F)F)c(NCc3nccnc3N(C)[S+](C)(=O)[O-])n2)cc1` [Defactinib (VS-6063, PF-04554878)] are -1.1, -79.8 and -50.3.
The corresponding values for `Cc1nc(N)sc1-c1ccnc(Nc2ccc(N3CCOCC3)cc2)n1` [CYC-116] are -1.1, -92.0 and -90.5.
The corresponding values for `COc1ccccc1-c1cc(Nc2cccc(C[S+](N)(=O)[O-])c2)ncn1` [LDC000067] are -1.1, -96.3 and -94.5.
With `O=C(NCc1cccc(O)c1)Nc1nc(-c2ccncc2)cs1` [RKI-1447], the “Curve Class” value is -1.2, the Efficacy was -64.8 and the “Max Resp” value is -59.5.
In the same order, the values of `O=C1Cc2c([nH]c3ccc([N+](=O)[O-])cc23)-c2ccccc2N1` [Alsterpaullone] are -1.1, -82.6 and -92.4.
On to `O=C1NC(=O)C(c2cnc3ccccn23)=C1c1cn2c3c(cc(F)cc13)CN(C(=O)N1CCCCC1)CC2` [LY2090314], for which the “Curve Class” value is listed as -1.1, the Efficacy is on record as -79.5 and the “Max Resp” value was -83.9. Besides, the AC50 under setting [2] is 631 nM.
On to `N#Cc1ccnc(Nc2cc(C3CCN(C4COC4)CC3)cc(N3CCC(F)(F)C3)n2)c1` [NCGC00384250-01], for which the “Curve Class” value is -1.2, the Efficacy is -76.1 and the “Max Resp” value is reported as -87.1. Moreover, under setting [1], the AC50 came out at 189 nM.
As to `Cc1cc(CN2CCN(c3c(Br)cnc4[nH]c(-c5ccc(N6CCN(C)CC6)cc5)nc34)CC2)no1` [CCT137690], the “Curve Class” value was -1.2, the Efficacy is given as -77.1 and the “Max Resp” value is -79.3.
In the same order, the values of `COc1ccc2c(NC(=O)Nc3cccc(C(F)(F)F)n3)ccnc2c1` [A 1070722] are -1.4, -58.3 and -64.1.
In the same order, the values of `NC(=O)c1ccccc1Nc1ccnc(Nc2cccc(O)c2)n1` [DB07268] are -1.1, -100.7 and -97.2.
The corresponding values for `CC(=O)c1cnc2ccc(-c3cc(Cl)c(O)c(Cl)c3)nc2c1N[C@H]1CC[C@H](CN(C)C)CC1` [OTSSP167] are -1.1, -82.5 and -98.5.
With `OCCCNc1cc(-c2ccnc(Nc3cccc(Cl)c3)n2)ccn1` [CGP60474], the “Curve Class” value is reported as -1.2, the Efficacy was -56.9 and the “Max Resp” value was -98.0.
